# Like-named read-outs stand apart in the source and are kept apart here.
# Legend:
# [1] = Fluorescence lifetimes by TCSPC; assay type: physicochemical; settings: for t (fluorescence lifetime), parent fluorophore: 20 mM buffer HEPES, pH 7.4; for t (fluorescence lifetime), P12-Complex: TCSPC
# Experimental: (§1) Absorption and fluorescence spectra were measured with a UVIKON 943 Double Beam UV/Vis absorption spectrophotometer and with a Perkin Elmer LS50B fluorescence spectrophotometer, respectively. Lifetime measurements were made by TCSPC in a Horiba Jobin Yvon IBH Fluorescence Lifetime Spectrometer System. The excitation source at 495 nm was a NanoLED N-01 Aqua and the detection module was TBX-04-A. Irradiation was carried out using a Superlite SUV-DC-P system incorporating a 200W DC Super-Pressure short arc lamp coupled to a light guide for high UV transmission and an electronic timer for exposure time control (Lumatec GmbH,
# The fluorescence lifetimes of the complexes obtained as described in section 3.1, were determined by TCSPC. The corresponding values for each parent fluorescein were also determined in 20 mM buffer HEPES, pH 7.4 for comparison.
# [2] = system: model target peptide P12 (FLNCCPGCCMEP); assay: In vitro labeling of model peptide P12; absorption and emission spectra of biarsenical-P12 complexes; assay type: physicochemical
# Experimental: as §1
# To a solution of the biarsenical compound in buffer HEPES 20 mM, 1 mM 2-ME, pH 7.4, at a concentration of 0.1 μM and with a slight excess of EDT, was added the model target peptide P12 ([…]) to a final concentration of 1 μM from a stock solution in the same buffer and treated with 10 mM TCEP to reduce any disulfide bond. Emission spectra were taken after two hours of formation of the complex. FIG. 4 depicts the emision spectra of the F2F1AsH, F4F1AsH and F1AsH at equal concentration, with excitation at 490 nm. A 4-fold enhanced fluorescence emission of F2F1AsH compared to F1AsH can be observed.
# [3] = Photostability (photobleaching under mercury arc lamp irradiation); assay type: physicochemical; settings: complexes with P12
# Experimental: FIG. 2 illustrates a graph illustrations photobleaching of F2F1AsH-P12 (◯), F4F1AsH-P12 (□) and F1AsH-P12 (+). Full lines correspond to exponential fits. Complexes of the three dyes (10 μM) were irradiated with a mercury arc lamp through a 490-560 nm filter with an irradiance of 70 mW/cm^2;
# as §1
# Samples containing 10 μM of the biarsenical compounds and 10 μM of the model peptide P12, were incubated at room temperature for 1 h. Each solution of the F1AsH-peptide complex was irradiated for 120 min as previously described (see General Procedures).
# Values of κbl were calculated from the monoexponential fitting of the experimental photobleaching decay, according to the model described in (Eq. 1) for the intermediate irradieation regime.^13
# where τ(s) is the lifetime, Ψ is the irradiance (photons cm^−2 s^−1) and σ is the molecular absorption cross-section (cm^2 molecules^−1). Inasmuch as a broad excitation bandwidth was used, σ was computed as a mean value over the spectral distribution function of photon flux and corrected by the spectral integral with the corresponding absorption spectra, including the irradiation source and filter.
# [4] = Critical Förster distances of donor-acceptor combinations; assay type: physicochemical
# Source text: F2F1AsH and F4F1AsH have a very favorable spectral overlap, leading to a large J (the overlap integral) and thus an R0 of 5.4 nm, greater than any of the values obtained with the other combinations of donors and acceptors based on biarsenical dyes. For example the F1ASH-ReAsH pair has an R0 of 3.9 nm. Thus, the new F2F1AsH-F4F1AsH probes constitute a new donor acceptor pair extending the dynamic range for heteroFRET in studies of living cells by 40%. They also provide new possibilities in combination with other FRET donors and acceptors within and outside the biarsenical family.
# [5] = approximate value from ref 8; cited from earlier work
Compound,"t (fluorescence lifetime), parent fluorophore [1] [ns]","t (fluorescence lifetime), P12-Complex [1] [ns]",wavelength of fluorescence maximum [3] [nm],10^13 · J (overlap integral) ([4]; acceptor F4FlAsH),Ro ([4]; acceptor F4FlAsH) [nm],10^14 · J (overlap integral) ([4]; acceptor ReAsH),Ro ([4]; acceptor ReAsH) [nm],also measured
"O=C1OC2(c3cc(F)c(O)cc3Oc3cc(O)c(F)cc32)c2ccccc21 [2′,7′-difluorofluorescein]",4.02,–,–,–,–,–,–,–
"O=C1OC2(c3ccc(O)cc3Oc3cc(O)ccc32)c2c(F)c(F)c(F)c(F)c21 [3,4,5,6-tetrafluorofluorescein]",4.13,–,–,–,–,–,–,–
"O=C1OC2(c3ccccc31)c1cc(F)c(O)c([As]3SCCS3)c1Oc1c2cc(F)c(O)c1[As]1SCCS1 [F2FlAsH, 4′,5′-Bis(1,2,3-dithioarsolan-2-yl)-2′,7′-difluorofluorescein]",–,4.78,516,1.58,5.4,3.44,4.1,"shift of absorption maximum to the blue compared to FlAsH [2]: 11 nm; emission quantum yield relative to FlAsH complex ([2]; P12 complex): 2 ×; extinction coefficient at 490 nm relative to FlAsH complex ([2]; P12 complex): 2 ×; fluorescence intensity relative to complex with parent FlAsH ([2]; P12 complex, λexc 490 nm, λem 525 nm): 4 fold; λem ([2]; biarsenical-P12 complex): 522 nm; Stokes shift ([2]; complex with P12): 22 nm; Stokes shift, greater than that of the FlAsH complex by ([2]; complex with P12): 7 nm; 10^13 · J (overlap integral) ([4]; acceptor F2FlAsH): 1.37; Ro ([4]; acceptor F2FlAsH): 5.2 nm; 10^14 · J (overlap integral) ([4]; acceptor FlAsH): 6.41; Ro ([4]; acceptor FlAsH): 4.1 nm"
"O=C1OC2(c3ccccc31)c1ccc(O)c([As]3SCCS3)c1Oc1c2ccc(O)c1[As]1SCCS1 [FlAsH, 4′,5′-Bis(1,2,3-dithioarsolan-2-yl)-fluorescein, reference compound]",–,4.88,519.5,1.48,4.7,5.03,3.9,"τ (fluorescence lifetime) ([1]; biarsenical-P12 complex): 4.88 ns; Φd, emission quantum yield of donor [5]: ~0.4"
"O=C1OC2(c3ccc(O)c([As]4SCCS4)c3Oc3c2ccc(O)c3[As]2SCCS2)c2c(F)c(F)c(F)c(F)c21 [F4FlAsH, 4′,5′-Bis(1,2,3-dithioarsolan-2-yl)-3,4,5,6-tetrafluorofluorescein]",–,5.18,538,1.17,4.5,6.45,4.1,"displacement of absorption maximum to the red compared to FlAsH [2]: 17 mn; Φd, emission quantum yield of donor [4]: 0.4"
